Experiment: gradient 5% acetonitrile 3 min, to 50% in 2 min, to 85% in 15 min, held 3 min, 100 µL/min
Details: column: Zorbax Extend-C18 2.1 x 50 mm; eluents: water / acetonitrile, 0.1% formic acid
Outline: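 Pure standards were analyzed in mixtures of ~100 molecules using HPLC coupled to a quadrupole time-of-flight mass spectrometer, in both positive and negative ionization mode. Separation used a Zorbax Extend-C18 column (2.1 × 50 mm, 1.8 μm) at 100 μL/min, with water and acetonitrile each containing 0.1% formic acid. Dead and dwell volumes were 40 μL and 900 μL, and data were collected over 3 months. Retention time was read from computationally picked adduct peaks, each inspected manually.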

SMILES	RP-LC retention time
COCCCNC(=O)N1CCCN(C2=NS(=O)(=O)C(c3ccc(F)cc3)=C2C)CC1	709 s
COc1cccc(Cn2nc3c(S(=O)(=O)N4CCCCCC4)cccn3c2=O)c1	918 s
CCn1ccc2c(cc(C(=O)Nc3ccc(Cl)cc3C)n2C)c1=O	1320 s
Cc1cccc(C)c1NC(=O)Cn1nc(N2CCC(C)CC2)c2ccccc2c1=O	1240 s
Cc1cc(C)c(NC(=O)CN2C(=O)NC3(CCC(C)CC3)C2=O)c(C)c1 (stereo not given)	570 s
Cc1nc(-c2cc(S(=O)(=O)Nc3cc(F)ccc3F)c(C)s2)sc1C	1100 s
CN1C(=O)CCC2(CNC(=O)c3cccn3C)CCC=C12 (stereo not given)	720 s
CCOC(=O)c1nc(N(CC)c2cc(C)ccc2C)c2ccccc2n1	1130 s
O=C(COc1ccc(Cl)cc1)NCC1(O)CCOCC1	623 s
Cc1cccc(NC(=O)C2CCCN2S(=O)(=O)c2cc3c(cc2Cl)NC(=O)CO3)c1C (stereo not given)	891 s
Cc1ccc(SCC(=O)Nc2nnc(Cc3ccc4c(c3)OCO4)o2)cc1	780 s
O=C(Cn1c(-c2cccnc2)nc2ccccc21)Nc1ccc(OC(F)(F)F)cc1	853 s
Cc1ccccc1NC(=O)C1CCCN(S(=O)(=O)c2cn(C(C)C)cn2)C1 (stereo not given)	726 s
COc1cccc(-c2cn3ccn(-c4ccccc4)c(=O)c3n2)c1	773 s
Cc1csc(-c2ccc(N3CCN(C(=O)c4ccsc4)CC3)nc2)n1	762 s
CCc1noc(C2(NC(=O)c3ccc(F)c(Cl)c3)CCCCC2)n1	1030 s
Cc1c(C(=O)N2CCN(C(C)C)CC2)cnn1-c1cc(-c2nc(C(C)(C)C)no2)ccn1	685 s
CC1CCN(CCCNC(=O)C2CCc3sc(C(=O)N4CCCC4)cc3C2)CC1 (stereo not given)	610 s
CCN1C(=O)COc2cc(-c3noc(C(=O)NC4CC4)n3)ccc21	773 s
COc1cccc(-c2noc(Cn3ccnc3C)n2)c1	624 s
Cc1ccc(CNC(=O)C2(C)CN(S(C)(=O)=O)CC(=O)N2CCc2ccc(Cl)cc2)cc1 (stereo not given)	961 s
CCn1cnc2ccc(-c3noc(COc4cccc(C)c4)n3)cc21	808 s
CC(=O)N1CCc2sc(C(=O)N3CCN(c4ccccc4)CC3)cc2C1	732 s

SMILES	RP-LC retention time
COc1ccc(-c2cc(=O)c3c(O)c(OC)c(OC)cc3o2)cc1O	906 s
COc1ccc(OC)c(CNC(=O)C2CCN(c3nnc(-c4ccccc4)o3)CC2)c1	797 s
COc1ccc(S(=O)(=O)NC2CCN(c3ccc(=O)n(CC4CC4)n3)C2)cc1Cl (stereo not given)	800 s
Cc1ccc(-c2ncc(NC(=O)c3cccs3)cn2)cc1	982 s
CC(C)Cc1ccc(S(=O)(=O)N2CCC(C(=O)NCc3csc(-c4ccccc4)n3)CC2)cc1	1140 s
CCN1CCN(c2cc(C(=O)O)c3cc(NS(=O)(=O)c4cc(C)c(C)cc4C)ccc3n2)CC1	629 s
NC(=O)C1CCN(C(=O)Cc2cc(-c3ccco3)on2)CC1	580 s
CCc1nnc(-c2cc(C)n(CC(=O)Nc3ccc(Cl)cc3F)c2C)o1	866 s
CCN1CCN(CCCNC(=O)c2c(-c3ccc(Br)s3)noc2C)CC1	594 s
O=C(NCc1ccc(F)cc1)c1nnc(-c2ccc(S(=O)(=O)N3CCCC3)cc2)o1	888 s
COC(=O)c1cccc(NC(=O)CSc2nccc(N3CCN(c4ccc(OC)cc4)CC3)n2)c1	743 s
Cn1c(CNC(=O)C2CCC2)nc2c1CN(C(=O)Nc1ccc(F)cc1)CC2	603 s
CCOC1CCN(C(=O)NC(C)(C)C)CC1	700 s
CCOc1ccc(NC(=O)N2CCCC(C)(C(=O)NCc3ccccc3)C2)cc1 (stereo not given)	859 s
CCCc1c(C(=O)O)nnn1Cc1ccc(OC)cc1	710 s
CCn1c(SCC(=O)Nc2ccc3c(c2)OCO3)nnc1-c1cn(C)nc1-c1ccc(Cl)cc1	819 s
CCCNC(=O)CC1CCN(C(=O)c2[nH]c(C)c(C)c2C)CC1	698 s
CC1CN(c2ccc(F)cc2)c2nc3c(c(=O)n(CC(=O)O)c(=O)n3C)n2C1 (stereo not given)	729 s
Cc1ccc(Nc2c(-c3ccc(O)cc3)nc3ccccn23)cc1	656 s
Cc1nc2cc(-c3noc(Cc4ccccc4Br)n3)ccc2o1	1120 s
Cc1ccc(NS(=O)(=O)c2ccc(-c3c(C)noc3C)cc2)cc1Cl	1040 s
COC(=O)c1ccc(C(=O)NCCN2CCN(C(=O)OC(C)(C)C)CC2)cc1	580 s
CC(C)[C@H](NC(=O)CNC(=O)OC(C)(C)C)C(=O)N[C@H](C=O)C(C)C	749 s

SMILES	RP-LC retention time
CCOC(=O)CNC(=O)NCc1cccn1Cc1ccccc1C	737 s
Cc1ccc(C(C)NC(=O)Cn2cc(-c3noc(-c4ccc(F)cc4)n3)nc2C)cc1 (stereo not given)	907 s
Cc1cc(N2CCCC2)n2nc(-c3ccc(C(C)(C)C)cc3)nc2n1	968 s
CCc1nc2ccccc2c(=O)n1Cc1noc(-c2cccc(OC)c2)n1	998 s
COc1ccc(-c2nc3cc(C)ccn3c2NC(=O)COc2ccc(Cl)cc2Cl)cc1	780 s
COc1ccccc1-c1cc(C(=O)N2CCCN(c3ccc(=O)n(-c4ccccc4)n3)CC2)[nH]n1	750 s
CCOC(=O)Cn1cccc(S(=O)(=O)N2CCCCCC2)c1=O	831 s
CC(C)c1noc(C2CCCCN2Cc2nc(-c3ccccn3)no2)n1 (stereo not given)	824 s
CC(NC(=O)C1CCN(CCc2cn(C)c3ncccc23)CC1)c1ccc(F)cc1 (stereo not given)	616 s
CCCN1C(=O)c2cc(C(=O)NCc3ccccc3F)nn2CC1(C)C(=O)NC1CCCC1 (stereo not given)	836 s
Cc1nnc(SCC(=O)N2CCN(c3nnnn3-c3ccccc3)CC2)s1	653 s
CCn1cc(S(=O)(=O)Nc2ccc(F)cc2Cl)c2cccnc21	870 s
Cn1cnc2c(C(=O)NC3CCCCCC3)nn(-c3ccccc3)c2c1=O	910 s
Cc1ccc(C)c(N2CCN(c3ccnc(SCC(=O)NCCC(C)C)n3)CC2)c1	920 s
CCNC(=O)c1ncn2c1C(=O)N(C1CC1)C(C)(C(=O)NCc1ccccc1)C2 (stereo not given)	656 s
Cc1cccc(NC(=O)Cc2csc3nc(-c4cccc(Br)c4)cn23)c1C	983 s
Cc1cccc(NC(=O)N2CCC(N3CCN(Cc4ccccc4)C(=O)C3=O)CC2)c1	744 s
O=C(c1ccc2ncccc2c1)N1C[C@@H](CO)[C@H](c2ccccn2)C1	543 s
C=CCN1CCc2c(cc(O)c(O)c2Br)[C@@H](c2ccccc2)C1	670 s
C=CCN=C(NC#N)SC	696 s
CCc1cccc(C)c1NC(=O)Cn1nc2n(c1=O)CCCCC2	700 s
COc1ccc(CCc2nc3nccc(-c4ccc(OC)c(OC)c4)n3n2)cc1	856 s
CC(C)n1nnc2cc(C(=O)N(C)CC(=O)Nc3ccc(F)c(Cl)c3)ccc21	790 s

SMILES	RP-LC retention time
Brc1ccc(OCc2nnc3sc(-c4ccccn4)nn23)cc1	960 s
CCOc1ccc(S(=O)(=O)N2CCC3(CC2)CN(C)CC3c2nnc(CC)o2)cc1 (stereo not given)	638 s
CCn1cnc2ccc(-c3noc(CCc4c[nH]c5ccccc45)n3)cc21	735 s
CCn1c(N2CCC(C(=O)NC3CCCCCC3)CC2)cc(=O)n(C)c1=O	855 s
CC1CCCCN1S(=O)(=O)c1ccc(C(=O)Nc2nc3c(s2)CCc2ccccc2-3)cc1 (stereo not given)	1270 s
N#Cc1ccc(C(=O)N2CCOc3ccccc32)cc1	864 s
CC1CCN(c2ccc(CNc3nc4ccncc4n(C(C)C)c3=O)cc2)CC1	574 s
CC(=O)N1N=C(c2ccccc2NS(C)(=O)=O)CC1c1ccc2ncccc2c1 (stereo not given)	599 s
COC(=O)c1cccc(Nc2c(-c3ccc(N(C)C)cc3)nc3cnccn23)c1	776 s
Cc1cc(C(=O)NCC2CCCO2)c2cccc(C)c2n1 (stereo not given)	616 s
Cc1cc(C(=O)Nc2nc3c(s2)CN(C(=O)c2nc4ccccc4s2)CC3)no1	870 s
Cc1cccc(N2CCN(c3cc(C(=O)O)c4cc(NC(=O)C5CCCC5)ccc4n3)CC2)c1C	799 s
O=C(CN1CCN(C(=O)Nc2ccc(F)cc2)CC1=O)NC1CCCCC1	701 s
Cc1cc(-c2csc(S(=O)(=O)NCCCN3CCN(c4ccccc4F)CC3)c2)on1	704 s
CCc1nc2cc(-c3noc(-c4ccco4)n3)ccc2o1	968 s
COC(=O)CNC(=O)N1CCCCCC1c1ccc(Cl)cc1 (stereo not given)	870 s
Cc1noc(-c2ccc(OC3CN(C(=O)c4cc(F)ccc4F)C3)cc2)n1	868 s
CCOc1ccc(-c2cn3ccn(-c4ccc(Br)cc4)c(=O)c3n2)cc1	931 s
CCCCC(=O)N1CCN(C(=O)c2cc3cc(Br)ccc3[nH]2)CC1	873 s
CCOc1ccc(C(=O)NC2CCN(c3cc(-c4ccc(OC)cc4)[nH]n3)C2)cc1 (stereo not given)	725 s
CCC(C)CC(=O)N1CCCN(C2=NS(=O)(=O)C(c3ccc(C)cc3)=C2C)CC1 (stereo not given)	900 s

— the METLIN SMRT retention time set (Domingo-Almenara et al. 2019)
